Measurements reported in patent US9637451B2, “Indole compound” (ASTELLAS PHARMA INC., priority 2014, dated 2017).

Legend:
rat = experiment: Measurement test of electroencephalogram in rat (sleep-awake cycle); type: in vivo
Description: After the completion of a quarantine period, the animals showing no abnormal health condition were subjected to an electroencephalogram electrode chronic implantation surgery with reference to brain atlas of Pellegrino (Plenum Press, New York (1979)), or the like. Under anesthesia with pentobarbital sodium, the rat was calibrated in a brain stereotaxic apparatus. In the frontal cortex, a monopolar silver ball electrode having a diameter of the tip of about 1 mm was placed on a hard film of the brain. Into the hippocampus, a laminated bipolar electrodes made of stainless steel was stuck. The reference electrode was screwed around the olfactory brain. Further, as for the electromyogram measurement, the lead wire was implanted in the both electrodes about 1 cm between the electrodes in the neck portion. The other end was exposed to the head portion subcutaneously. The electrodes and the lead wires were subjected to soldering with connector sockets and fixed to the skull with a dental resin or the like.
The rats were accommodated in a measurement cage under rat feeding and water supply on the morning of the day of administration, and accustomed to the measurement environment. After measuring the weight using an electronic scale balance, a lead wire and a connector socket were connected 30 minutes or more before the start of the electroencephalogram measurement, and the rat was accustomed in the measurement state under no anesthesia and no custody. The test compounds were intraperitoneally or orally administered to the rats and the electroencephalogram was measured continuously until 6 hours after the administration.
Ramelteon: solvent, 0.1 mg/kg, 1 mg/kg, and 10 mg/kg; intraperitoneal administration
Example 1: solvent, 3 mg/kg, 30 mg/kg, and 300 mg/kg; oral administration
Example 6: solvent, 10 mg/kg, 30 mg/kg, and 300 mg/kg; oral administration
The electrical signals of electroencephalogram and of electromyogram were applied to an electroencephalogram system and an electroencephalogram frequency analysis program of a personal computer was used to acquire the wave form of the electroencephalogram from the electroencephalograph system. In addition, the image signals of the electroencephalogram waveform were applied to an EEG video system and recorded on DVD-R using a DVD recorder. The behavior observation was carried out through a video camera at the same time as the electroencephalogram measurement and the images were also recorded on DVD-R using DVD recorder.
The presence or absence of abnormality in the electroencephalogram waveform in up to 6 hours from immediately after the administration, to each animal, respectively, was observed.
The analysis of a sleep-awake cycle was carried out using a sleep stage display-supporting program (MTS50061B, Japan Santec Corporation) based on the electroencephalogram waveforms acquired with an electroencephalogram frequency analysis program. Using the index of electroencephalogram, electromyogram, and behavior, the sleep steps were classified into an awake phase, a rest phase, a slow wave light sleep (S.W.L.S.) phase, a slow wave deep sleep (S.W.D.S.) phase, and a fast wave sleep (F.W.S., REM sleep) phase. Further, the rest phase, the slow wave light sleep phase, and the slow wave deep sleep phase were summed to determine a slow wave sleep (S.W.S., Non-REM sleep) phase. […] As the assessment criteria in the respective sleep steps, the criteria described in Japanese Pharmacological Journal 84, 25-89 (1984) were used.

human MT2 receptor = target: T1, human MT2 receptor (Homo sapiens, UniProt P49286); experiment: Activation of human MT2 receptor in receptor-expressing cells, intracellular Ca2+ by FLIPR; type: cell-based
T1 construct: expressed in transfected cells
T1 sequence (P49286 1-362): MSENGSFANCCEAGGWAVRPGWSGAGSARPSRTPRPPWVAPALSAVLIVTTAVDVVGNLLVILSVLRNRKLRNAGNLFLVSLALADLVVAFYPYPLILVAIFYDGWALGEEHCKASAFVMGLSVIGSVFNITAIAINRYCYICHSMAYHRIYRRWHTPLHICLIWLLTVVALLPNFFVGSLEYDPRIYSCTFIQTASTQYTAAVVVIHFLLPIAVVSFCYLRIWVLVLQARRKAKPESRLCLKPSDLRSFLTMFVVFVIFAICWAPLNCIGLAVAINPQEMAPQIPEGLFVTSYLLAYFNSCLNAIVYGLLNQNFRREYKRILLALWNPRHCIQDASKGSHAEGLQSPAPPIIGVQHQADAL

SD female rats = experiment: Effect of test compound on urethral pressure in anesthetized rats; type: in vivo, rat
Description: SD female rats were anesthetized with urethane and subjected to laparotomy. Then, the bladder apex was incised and a catheter was inserted from the bladder apex. Further, the catheter tip was ligated and fixed to be located in the proximal urethra portion. The catheter was connected to a pressure transducer and an infusion pump. Further, a catheter for administrating the compound was fitted into the femoral vein. Physiological saline was continuously infused into the urethra and the perfusion pressure in the urethra was measured. After the urethral pressure was stabilized, the test compound that had been dissolved in physiological saline, or physiological saline including 5% dimethylacetamide and 0.5% Cremophor was administered intravenously at 0.01 mg/kg or 0.1 mg/kg, and a change in urethral pressures was measured.
Further, the results of administering an active metabolite of midodrine (ST-1059: purchased from CHEMIZON) (J. Urology, 118, 980-982 (1977)) which is an α1 adrenoceptor agonist and is confirmed to have a clinical effect on stress urinary incontinence at doses, 0.01 mg/kg and, 0.1 mg/kg in rats, presumed to correspond to the clinical doses are referenced and shown in the Tables below.
The increment value in the urethral pressures of ramelteon and the Example compounds of the present invention at the time of administration are shown in Table 3. Ex represents Example No. of the test compound and N.T represents Not Tested.

[1] = CSF-to-plasma unbound concentration ratio in rat after intravenous administration; type: in vivo
Method: A test compound (100 μg/mL, 50% acetonitrile solution) at 1% (v/v) with respect to the amount of the plasma was added to rat plasma, and dispensed to a sample for a supernatant and a sample for the plasma. The sample for a supernatant was ultracentrifuged at 436,000×g and 37° C. for 140 minutes, and the sample for the plasma was incubated at 37° C. for 140 minutes.
After 140 minutes, the sample for a supernatant after the ultracentrifugation and the sample for the plasma were taken, and mixed with the blank plasma or the blank supernatant, respectively. Acetonitrile including an internal standard material was added to each of the samples with the removal of protein, and after the centrifugation at 2150×g and 4° C. for 10 minutes the supernatant was injected into LC-MS/MS.
The unbound fraction in the plasma was calculated by the following equation.
To the plasma of a rat was added a test compound (0.2 mM, 50% acetonitrile solution) in an amount corresponding to 1% (v/v) of the plasma amount, and 200 μL of obtained plasma sample was filled into a plasma chamber of a RED device insert. A buffer chamber was filled with 350 μL of PBS, followed by performing equilibrium dialysis by stirring in a CO2 incubator at 37° C. for 16 hours. The sample after the completion of the equilibrium dialysis was recovered and the volume of the plasma sample was measured. To the plasma sample after the completion of the equilibrium dialysis were added PBS, a 20 mM ammonium formate buffer, and acetonitrile including an internal standard material. Similarly, to the PBS sample after the completion of the equilibrium dialysis was added a blank plasma, a 20 mM ammonium formate buffer, and acetonitrile including an internal standard material. This sample was left to stand at 4° C. for 30 minutes and then centrifuged 1500×g for 10 minutes, and the supernatant was measured by LC-MS/MS. The unbound fraction in the plasma was calculated by the following equation. fp=Cf/{(Cp−Cf)(V/V0)+Cf}
At 15 minutes after intravenously administration of the test compound to the rats, the plasma and CSF were collected. A 50% acetonitrile solution and an acetonitrile including internal standard material were added to the collected plasma or CSF. After centrifuging this sample at 4° C. and 2150×g for 10 minutes, the supernatant was measured by LC-MS/MS, and the total concentration of the test compound in the plasma (Cplasma,t) and the concentration of the test compound in CSF (CCSF) were obtained. The unbound concentration in the plasma (Cplasma,u) of the test compound and the CSF-to-plasma unbound concentration ratio (Kp,uu,CSF) of the test compound was calculated by the following equation.
The Kp,uu,CSF values and the Kp,brain values of ramelteon and some Example compounds of the present invention are shown in Table 4. Ex represents Example No. of the test compound. Unless otherwise specified, the Kp,uu,CSF was calculated using the fp values determined by an ultracentrifugation method. Further, N.T. represents Not Tested.
(Ramelteon represents the values of Kp,uu,CSF after 10 minutes after the intravenous administration. Further, the Kp,uu,CSF of Examples 37 and 38 was calculated using the fp values determined by an equilibrium dialysis method. In addition, N.D. denotes the concentration of the test compound in CSF that is no higher than the detection limit.)

human MT1 receptor = target: T2, human MT1 receptor (Homo sapiens, UniProt P48039); experiment: Activation of human MT1 receptor in receptor-expressing cells, intracellular Ca2+ by FLIPR; type: cell-based
T2 construct: expressed in transfected cells

[2] = tested on: isolated urethra in a rat; settings: Patent Document 5; cited from earlier work
[3] = oral, any of the doses 3, 30 and 300 mg/kg
[4] = maximum reaction by ramelteon taken as 100%

T2 sequence (P48039 whole entry): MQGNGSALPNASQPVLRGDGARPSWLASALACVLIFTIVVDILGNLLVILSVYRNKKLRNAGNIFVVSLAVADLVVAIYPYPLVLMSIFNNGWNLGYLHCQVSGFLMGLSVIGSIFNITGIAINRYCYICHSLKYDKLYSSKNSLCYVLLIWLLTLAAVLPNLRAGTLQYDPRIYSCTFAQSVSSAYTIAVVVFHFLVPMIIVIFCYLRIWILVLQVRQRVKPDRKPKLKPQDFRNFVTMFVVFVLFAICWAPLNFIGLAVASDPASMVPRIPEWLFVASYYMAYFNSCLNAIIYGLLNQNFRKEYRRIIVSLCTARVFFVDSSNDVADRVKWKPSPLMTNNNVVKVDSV

EC50 (human MT2 receptor; HEK293 cells stably expressing human MT2 and Gq/i chimeric G protein, Ca2+ FLIPR) | Emax (human MT2 receptor; [4]) | Kp uu at 0.25 h ([1]; CSF and plasma (unbound), iv, 15 minutes after intravenous administration, fp by ultracentrifugation method) | EC50 (human MT1 receptor; HEK293EBNA1 cells stably expressing human MT1 and Gq/i chimeric G protein, Ca2+ FLIPR) | Emax (human MT1 receptor; [4]) | occupancy of the respective sleep steps (rat; 1 mg/kg intraperitoneal, up to 6 hours) | Kp,uu,CSF ([1]; 10 minutes after the intravenous administration) | Kp uu at 10 min ([1]; CSF and plasma (unbound), iv, 10 minutes after the intravenous administration) | SMILES | occupancy in the respective sleep steps of electroencephalogram (rat; [3]) | sleep action (rat; [3]) | urethral pressure increasing action (SD female rats; dose of 0.01 mg/kg) | occupancy of the sleep step of electroencephalogram (rat; 0.1 mg/kg intraperitoneal, up to 6 hours) | sleep action (rat; intraperitoneal 0.1, 1 and 10 mg/kg) | Increment value in the urethral pressures compared with ST-1059 (SD female rats; intravenous) | contraction of isolated urethra, increase of urethral pressure [2]
14 nM | 119% | 0.05 | 3.9 nM | 95% |  |  |  | CCC(=O)NCCc1c(C)[nH]c2ccc(OCCOc3ccn(C)n3)cc12 [Example 1, N-[2-{2-methyl-5-(2-[(1-methyl-1H-pyrazol-3-yl)oxy]ethoxy}-1H-indol-3-yl)ethyl]propanamide] | no change in the occupancy in the respective sleep steps of electroencephalogram could be seen | there was no sleep action | good urethral pressure increasing action |  |  |  | 
 |  |  |  |  | significantly increases | 1.74 | > 1 | CCC(=O)NCC[C@@H]1CCc2ccc3c(c21)CCO3 [Ramelteon, ramelteon, reference compound] |  |  |  | there is a tendency that the occupancy of the sleep step of electroencephalogram from a dose of 0.1 mg/kg increases | there is a sleep action | equal to or more than that of ST-1059 | contract the isolated urethra in a rat to increase the urethral pressure of the rat
